Experimental data taken from patent US10947242B2, “[1,2,4]triazolo[1,5and#8208;A]pyrimidine compounds as PDE2 inhibitors” (Janssen Pharmaceutica NV, priority 2016, dated 2021).
Like-named read-outs stand apart in the source and are kept apart here.

What was measured:
[1] = target: T1, Human recombinant PDE2A (hPDE2A) (Homo sapiens, UniProt O00408); assay: In vitro assay PDE2A (SPA, 3H-cGMP hydrolysis); type: biochemical; conditions: for Emax: read-out: hPDE2A Emax
T1 construct: His tag (inferred from metal chelate purification); made in house; host or cells: Sf9 insect cells (baculovirus)

[2] = target: T2, Human recombinant PDE3A (hPDE3A) (Homo sapiens, UniProt Q14432); assay: In vitro assay PDE3A (SPA, 3H-cAMP hydrolysis); type: biochemical; conditions: for IC50: hPDE3B pIC50; for Emax: read-out: hPDE3B Emax, read-out: Emax;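 on Emax: the method names PDE3A and the table heading PDE3B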
T2 construct: purchased Scottish Biomedical; host or cells: Sf9 insect cells
In short: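 Radiometric SPA measuring [3H]-cAMP hydrolysis (0.4 μM cAMP, 2.4 μCi/ml) over 60 min at room temperature, in Tris pH 7.8 buffer with MgCl2 and EGTA, 1% DMSO. Enzyme: recombinant human brain PDE3A expressed in Sf9 cells, used as partially purified lysate. Counts compared with enzyme-free blanks and vehicle controls.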

[3] = target: T3, Human recombinant PDE10A (hPDE10A) (Homo sapiens, UniProt Q9Y233); assay: In vitro assay PDE10A, human clone (SPA, 3H-cAMP hydrolysis); type: biochemical
T3 construct: His tag (inferred from metal chelate purification); made in house; host or cells: Sf9 insect cells (baculovirus)
In short: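 Hydrolysis of 3H-cAMP (60 nM cAMP, 0.008 μCi tracer) proceeded for 60 min at room temperature, with the product detected by SPA bead scintillation counting. The enzyme was hPDE10A from baculovirus-infected Sf9 cells in Tris pH 7.8 buffer with MgCl2 and EGTA, and compounds were at 1% DMSO final. Blanks lacked enzyme.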

PDE2A = target: T4, PDE2A (Rattus norvegicus, UniProt Q01062); assay: PDE2 occupancy by test compounds, ex-vivo autoradiography with [3H]B-17a; type: in vivo, Male Wistar rats; conditions: for receptor occupancy at 10 mg/kg: percentage receptor occupancy, ex-vivo autoradiography, striatum; for ED50: read-out: PDE Occupancy ED50
T4 construct: Twenty μm-thick striatal sections were cut; from tissue; host or cells: rat brain, striatal sections
T4 sequence (Q01062 1-928): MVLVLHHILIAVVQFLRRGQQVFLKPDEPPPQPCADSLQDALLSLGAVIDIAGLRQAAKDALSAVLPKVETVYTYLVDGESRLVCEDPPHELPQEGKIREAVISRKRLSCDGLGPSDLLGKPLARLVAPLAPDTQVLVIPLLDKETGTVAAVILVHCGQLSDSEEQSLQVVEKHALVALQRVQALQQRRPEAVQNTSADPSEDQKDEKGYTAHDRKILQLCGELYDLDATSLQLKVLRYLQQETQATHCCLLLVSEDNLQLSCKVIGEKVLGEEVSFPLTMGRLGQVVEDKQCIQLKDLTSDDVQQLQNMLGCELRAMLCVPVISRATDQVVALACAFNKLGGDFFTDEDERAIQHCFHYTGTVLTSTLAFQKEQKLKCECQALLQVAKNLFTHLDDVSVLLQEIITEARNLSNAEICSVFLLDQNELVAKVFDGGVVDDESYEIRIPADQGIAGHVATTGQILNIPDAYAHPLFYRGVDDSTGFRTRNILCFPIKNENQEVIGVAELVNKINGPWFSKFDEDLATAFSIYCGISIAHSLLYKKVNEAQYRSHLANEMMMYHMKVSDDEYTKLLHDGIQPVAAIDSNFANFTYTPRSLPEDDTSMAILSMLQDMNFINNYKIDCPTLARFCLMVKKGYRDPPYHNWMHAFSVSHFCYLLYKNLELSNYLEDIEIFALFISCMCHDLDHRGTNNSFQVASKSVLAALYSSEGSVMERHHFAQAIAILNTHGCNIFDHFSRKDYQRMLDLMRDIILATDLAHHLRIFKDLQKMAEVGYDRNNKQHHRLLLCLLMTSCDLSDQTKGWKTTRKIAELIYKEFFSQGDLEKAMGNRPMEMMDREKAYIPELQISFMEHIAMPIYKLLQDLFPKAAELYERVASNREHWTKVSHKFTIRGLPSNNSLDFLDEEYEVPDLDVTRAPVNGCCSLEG

[4] = human clone by default (no (r) mark), read-out: hPDE10A2 or rPDE10A2 Emax
[5] = read-out: hPDE2A pIC50 (converted)
[6] = human clone by default (no (r) mark), read-out: hPDE10A2 or rPDE10A2 pIC50 (converted)
[7] = human recombinant PDE2A, 10 μM cGMP substrate, read-out: hPDE2A pIC50 (converted)
[8] = human clone (h), default, read-out: hPDE10A2 Emax
[9] = human clone (h), default, read-out: hPDE10A2 pIC50 (converted)
[10] = route PO (oral), drug dose producing 50% receptor occupancy

T1 sequence (O00408 whole entry): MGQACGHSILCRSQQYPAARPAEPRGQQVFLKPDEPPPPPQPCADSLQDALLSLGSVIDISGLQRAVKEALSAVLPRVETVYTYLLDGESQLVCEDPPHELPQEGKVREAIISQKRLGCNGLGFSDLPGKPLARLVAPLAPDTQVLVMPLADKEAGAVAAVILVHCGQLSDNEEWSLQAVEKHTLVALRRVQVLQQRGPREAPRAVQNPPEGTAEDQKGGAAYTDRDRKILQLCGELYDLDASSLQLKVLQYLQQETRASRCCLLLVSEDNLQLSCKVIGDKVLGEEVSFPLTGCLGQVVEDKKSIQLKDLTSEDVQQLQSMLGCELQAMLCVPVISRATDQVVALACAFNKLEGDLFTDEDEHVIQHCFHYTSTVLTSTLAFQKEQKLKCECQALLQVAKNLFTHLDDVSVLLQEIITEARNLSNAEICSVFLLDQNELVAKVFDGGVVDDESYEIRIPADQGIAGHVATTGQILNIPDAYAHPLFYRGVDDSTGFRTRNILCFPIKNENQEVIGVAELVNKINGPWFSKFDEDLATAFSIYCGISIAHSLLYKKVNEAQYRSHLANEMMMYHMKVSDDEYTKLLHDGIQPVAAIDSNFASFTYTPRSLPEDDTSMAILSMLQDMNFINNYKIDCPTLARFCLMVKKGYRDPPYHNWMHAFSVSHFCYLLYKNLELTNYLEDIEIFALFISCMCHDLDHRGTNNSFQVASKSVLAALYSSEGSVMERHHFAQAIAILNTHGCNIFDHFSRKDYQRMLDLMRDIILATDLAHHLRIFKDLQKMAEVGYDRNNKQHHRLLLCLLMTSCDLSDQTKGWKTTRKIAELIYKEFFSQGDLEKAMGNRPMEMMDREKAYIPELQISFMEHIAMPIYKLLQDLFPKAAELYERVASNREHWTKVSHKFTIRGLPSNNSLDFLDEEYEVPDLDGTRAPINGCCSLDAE
T3 sequence (Q9Y233 267-1055): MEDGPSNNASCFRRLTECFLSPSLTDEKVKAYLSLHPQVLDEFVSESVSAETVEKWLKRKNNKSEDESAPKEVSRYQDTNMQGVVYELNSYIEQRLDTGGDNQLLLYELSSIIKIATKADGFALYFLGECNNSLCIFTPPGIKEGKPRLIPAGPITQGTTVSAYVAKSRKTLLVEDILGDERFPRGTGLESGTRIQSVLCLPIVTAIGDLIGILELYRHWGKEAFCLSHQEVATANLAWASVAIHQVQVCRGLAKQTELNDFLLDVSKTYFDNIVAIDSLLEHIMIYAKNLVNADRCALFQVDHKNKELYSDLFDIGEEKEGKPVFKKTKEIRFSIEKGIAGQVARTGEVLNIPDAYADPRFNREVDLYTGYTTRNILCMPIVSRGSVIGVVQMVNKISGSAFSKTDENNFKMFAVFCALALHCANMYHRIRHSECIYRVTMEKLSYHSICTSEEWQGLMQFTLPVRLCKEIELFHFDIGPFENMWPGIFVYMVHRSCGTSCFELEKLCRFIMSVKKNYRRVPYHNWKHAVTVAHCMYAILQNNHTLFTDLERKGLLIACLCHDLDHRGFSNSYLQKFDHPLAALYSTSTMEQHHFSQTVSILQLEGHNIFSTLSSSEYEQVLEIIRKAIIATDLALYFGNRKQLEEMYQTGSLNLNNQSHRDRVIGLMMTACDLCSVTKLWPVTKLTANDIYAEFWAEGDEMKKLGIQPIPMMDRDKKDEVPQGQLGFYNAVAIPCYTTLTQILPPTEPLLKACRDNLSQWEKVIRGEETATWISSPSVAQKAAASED
T2 sequence (Q14432 whole entry): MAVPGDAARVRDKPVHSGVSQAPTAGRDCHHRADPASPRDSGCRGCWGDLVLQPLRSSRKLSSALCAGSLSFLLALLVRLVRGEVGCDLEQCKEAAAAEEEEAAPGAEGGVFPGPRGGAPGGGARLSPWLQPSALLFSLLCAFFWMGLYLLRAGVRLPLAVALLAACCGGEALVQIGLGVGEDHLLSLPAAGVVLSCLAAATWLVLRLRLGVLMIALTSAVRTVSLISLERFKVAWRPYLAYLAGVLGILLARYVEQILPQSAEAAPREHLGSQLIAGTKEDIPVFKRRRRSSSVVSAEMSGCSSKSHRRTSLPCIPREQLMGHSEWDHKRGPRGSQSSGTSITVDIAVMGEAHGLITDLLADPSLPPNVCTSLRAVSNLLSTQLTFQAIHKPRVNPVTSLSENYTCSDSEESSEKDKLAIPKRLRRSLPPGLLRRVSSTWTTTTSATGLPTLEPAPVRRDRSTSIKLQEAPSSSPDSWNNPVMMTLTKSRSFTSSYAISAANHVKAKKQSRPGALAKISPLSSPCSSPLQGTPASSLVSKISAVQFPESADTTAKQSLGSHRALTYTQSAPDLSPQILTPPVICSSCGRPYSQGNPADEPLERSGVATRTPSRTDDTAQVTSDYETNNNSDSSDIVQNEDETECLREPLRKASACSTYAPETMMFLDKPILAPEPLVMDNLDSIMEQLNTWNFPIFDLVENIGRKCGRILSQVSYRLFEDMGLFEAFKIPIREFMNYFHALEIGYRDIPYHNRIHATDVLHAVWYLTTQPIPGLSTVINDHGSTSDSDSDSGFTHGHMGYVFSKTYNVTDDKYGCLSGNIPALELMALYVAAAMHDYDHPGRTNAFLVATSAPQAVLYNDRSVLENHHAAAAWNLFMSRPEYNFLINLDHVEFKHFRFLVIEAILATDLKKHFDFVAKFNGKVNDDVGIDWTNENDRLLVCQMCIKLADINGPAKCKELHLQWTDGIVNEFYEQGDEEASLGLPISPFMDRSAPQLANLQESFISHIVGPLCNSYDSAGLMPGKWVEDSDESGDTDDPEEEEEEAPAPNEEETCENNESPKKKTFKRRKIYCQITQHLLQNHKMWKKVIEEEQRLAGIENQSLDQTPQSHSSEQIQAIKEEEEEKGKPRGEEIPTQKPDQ

Structure (SMILES)	IC50 ([1]; hPDE2A pIC50)	Emax [1]	IC50 [2]	Emax [2]	IC50 ([3]; hPDE10A2 or rPDE10A2 pIC50, human clone by default (no (r) mark))	Emax [3, 4]	receptor occupancy at 10 mg/kg (PDE2A; route PO (oral))	IC50 [1, 5]	IC50 ([2]; read-out: pIC50 (converted))	IC50 [3, 6]	IC50 [1, 7]	Emax ([1]; human recombinant PDE2A)	Emax [3, 8]	IC50 [3, 9]	ED50 (PDE2A; [10])	receptor occupancy at 10 mg/kg (PDE2A; sc, route SC (subcutaneous))	receptor occupancy at 10 mg/kg (PDE2A; route SC (subcutaneous))	receptor occupancy at 10 mg/kg (PDE2A; po, route PO (oral))	ED50 (PDE2A; po)	IC50 ([1]; hPDE2A pIC50, human recombinant PDE2A, 10 μM cGMP substrate)
O=C(c1ccc2ccccc2n1)N1[C@H]2CC[C@H](c3cc(C(F)F)nc4ncnn34)[C@@H]1CC2 [Compound 308]	0.0174 µM	98%	4.57 µM	72%	6.76 µM	66%	18%	–	–	–	–	–	–	–	–	–	–	–	–	–
O=C(c1ccc2cccn2c1)N1[C@H]2CC[C@H](c3cc(C(F)F)nc4ncnn34)[C@@H]1CC2 [Compound 291]	–	101%	–	86%	–	95%	38%	0.00269 µM	2.63 µM	0.513 µM	–	–	–	–	–	–	–	–	–	–
CCc1cc(C(=O)N2CC[C@@H](C)[C@H](c3cc(C(F)F)nc4ncnn34)C2)cc(C)n1 [Compound 80]	–	100%	–	71%	–	–	–	0.000794 µM	4.17 µM	–	0.000794 µM	100%	98%	0.0813 µM	8.63 mg/kg	52%	–	–	–	–
Cc1cc(C(=O)N2[C@H]3CC[C@@H]2[C@H](c2cc(C(F)F)nc4ncnn24)CC3)cc(C)n1 [Compound 30]	–	77%	–	8%	–	–	–	3.55 µM	> 10 µM	–	3.55 µM	77%	32%	> 10 µM	–	–	0%	–	–	–
Cc1cc(C(=O)N2CC[C@@H](C)[C@H](c3cc(C(F)F)nc4ncnn34)C2)c(C)cn1 [Compound 32]	–	100%	–	31%	–	–	–	0.00347 µM	> 10 µM	–	0.00347 µM	100%	81%	1.45 µM	–	–	–	-6%	–	–
Cc1cc(Cl)cc(C(=O)N2[C@H]3CC[C@H](c4cc(C(F)F)nc5ncnn45)[C@@H]2CC3)c1 [Compound 339]	–	101%	–	69%	–	95%	-1%	0.00661 µM	4.79 µM	0.617 µM	–	–	–	–	–	–	–	–	–	–
COc1ccc(C(=O)N2[C@H]3CC[C@H](c4cc(C(F)F)nc5ncnn45)[C@@H]2CC3)cc1OC [Compound 364]	–	101%	–	75%	–	85%	-5%	0.00389 µM	3.16 µM	1.82 µM	–	–	–	–	–	–	–	–	–	–
O=C(c1cc(OC(F)F)cc(C2CC2)c1)N1[C@H]2CC[C@H](c3cc(C(F)F)nc4ncnn34)[C@@H]1CC2 [Compound 352]	–	100%	–	89%	–	99%	16%	0.00759 µM	1.82 µM	0.479 µM	–	–	–	–	–	–	–	–	–	–
COc1cc(C(=O)N2CC[C@@H](C)[C@H](c3cc(C(F)F)nc4ncnn34)C2)c(F)cn1 [Compound 36]	–	100%	–	64%	–	–	–	0.00275 µM	3.98 µM	–	–	–	93%	0.468 µM	45.2 mg/kg	–	–	32%	–	–
O=C(c1cnc2ccccc2c1)N1[C@H]2CC[C@H](c3cc(C(F)F)nc4ncnn34)[C@@H]1CC2 [Compound 313]	–	97%	–	61%	–	86%	28%	0.00135 µM	6.03 µM	1.23 µM	–	–	–	–	–	–	–	–	–	–
COc1cc(C(=O)N2[C@H]3CC[C@H](c4cc(C(F)F)nc5ncnn45)[C@@H]2CC3)cc(OC)n1 [Compound 301]	–	100%	–	62%	–	89%	-7%	0.00813 µM	6.31 µM	1.26 µM	–	–	–	–	–	–	–	–	–	–
O=C(c1cnc2c(F)cccc2c1)N1[C@H]2CC[C@H](c3cc(C(F)F)nc4ncnn34)[C@@H]1CC2 [Compound 309]	–	100%	–	53%	–	86%	12%	0.00295 µM	7.59 µM	1.51 µM	–	–	–	–	–	–	–	–	–	–
Cc1nc2ccc(C(=O)N3[C@H]4CC[C@H](c5cc(C(F)F)nc6ncnn56)[C@@H]3CC4)cc2s1 [Compound 368]	–	101%	–	61%	–	99%	11%	0.00617 µM	6.46 µM	0.251 µM	–	–	–	–	–	–	–	–	–	–
COc1c(C)cc(C(=O)N2[C@H]3CC[C@H](c4cc(C(F)F)nc5ncnn45)[C@@H]2CC3)cc1C [Compound 292]	–	100%	–	73%	–	94%	23%	0.00251 µM	4.68 µM	0.724 µM	–	–	–	–	–	–	–	–	–	–
Cn1c(C(=O)N2[C@H]3CC[C@H](c4cc(C(F)F)nc5ncnn45)[C@@H]2CC3)cc2ccccc21 [Compound 300]	–	100%	–	88%	–	80%	-11%	0.00646 µM	2 µM	2.88 µM	–	–	–	–	–	–	–	–	–	–
Cc1cc(C(=O)N2[C@H]3CC[C@H](c4cc(C(F)F)nc5ncnn45)[C@@H]2CC3)cc(C)c1C#N [Compound 299]	–	99%	–	40%	–	84%	31%	0.00776 µM	> 10 µM	2.14 µM	–	–	–	–	–	–	–	–	–	–
Cc1nn(C)c2sc(C(=O)N3[C@H]4CC[C@H](c5cc(C(F)F)nc6ncnn56)[C@@H]3CC4)cc12 [Compound 335]	–	102%	–	52%	–	98%	88%	0.000955 µM	7.24 µM	0.0871 µM	–	–	–	–	–	–	–	–	0.985 mg/kg	–
Cc1cc([C@@H]2CN(C(=O)c3ccc4ncsc4c3)CC[C@H]2C)n2ncnc2n1 [Compound 2a]	0.000589 µM	101%	–	98%	–	–	–	–	0.776 µM	–	–	–	101%	0.00724 µM	–	70%	–	–	–	0.000589 µM
Cc1nocc1C(=O)N1CC[C@@H](C)[C@H](c2cc(C(F)F)nc3ncnn23)C1 [Compound 184]	–	100%	–	17%	–	–	–	0.0282 µM	> 10 µM	–	0.0282 µM	100%	75%	2.75 µM	–	–	–	-2%	–	–
C[C@@H]1CCN(C(=O)c2ccn(C)n2)C[C@H]1c1cc(C(F)F)nc2ncnn12 [Compound 139]	–	99%	–	20%	–	–	–	0.0288 µM	> 10 µM	–	0.0288 µM	99%	78%	2.4 µM	–	–	–	-11%	–	–
Cc1cc(C(=O)N2C3CCC2[C@@H](c2cc(C(F)F)nc4ncnn24)CC3)cc(C2CC2)n1 (some centres unmarked) [Compound 28]	–	101%	–	17%	–	–	–	0.000955 µM	> 10 µM	–	0.000955 µM	101%	95%	0.447 µM	–	–	49%	–	25 mg/kg	–
